Experimental data published in patent US20250275959A1, “COMPOUNDS AND METHODS OF THEIR USE” (LEXICON PHARMACEUTICALS, INC., priority 2024, published 2025).

Biological target: hACSL5 (Homo sapiens (Human), UniProt Q9ULC5)
Test: Human ACSL5 coupled enzyme Amplex Red assay
Type: biochemical
Details: read-out: hACSL5 IC50
Description: Human ACSL5 (33-683) was cloned with a C-terminal 6 His tag and expressed in insect cells (sf9) as per standard insect cell expression protocols. Human ACSL5 was enriched by affinity nickel affinity chromatography followed by Superdex S200 gel filtration column equilibrated in 20 mM HEPES pH 7.8, 500 mM NaCl, 1 mM TCEP, 5% glycerol, 0.1% Triton X^100.
Inhibition of ACSL5 enzyme activity was monitored with a coupled enzyme Amplex Red assay.
The assay is carried out in 384-well microtiterplates. In a total volume of […], compounds are preincubated with 20 nM ACSL5, in a buffer containing 150 mM MOPS-NaOH, 12 mM MgCl2, 0.03% (v/v) Triton X-100, 2.79 U mL-1 Peroxidase and 24 U mL-1 Acyl-CoA Oxidase (pH 7.6). The reaction is started by the addition of substrate and co factors (25 μM oleate, 30 μM CoA, 1 mM ATP and 50 μM Amplex Red) and the fluorescence detected after 10 minutes at 25° C. with a fluorescence reader (BMG-Fluostar; BMG-Technologies) using an excitation wavelength of 535 nm and an emission wavelength of 590 nm.
Concentration-response titration points for each compound tested were filled to the Hill equation yielding concentrations of half maximal inhibition […] and maximal inhibition values.

Chain of hACSL5 (Q9ULC5 33-683): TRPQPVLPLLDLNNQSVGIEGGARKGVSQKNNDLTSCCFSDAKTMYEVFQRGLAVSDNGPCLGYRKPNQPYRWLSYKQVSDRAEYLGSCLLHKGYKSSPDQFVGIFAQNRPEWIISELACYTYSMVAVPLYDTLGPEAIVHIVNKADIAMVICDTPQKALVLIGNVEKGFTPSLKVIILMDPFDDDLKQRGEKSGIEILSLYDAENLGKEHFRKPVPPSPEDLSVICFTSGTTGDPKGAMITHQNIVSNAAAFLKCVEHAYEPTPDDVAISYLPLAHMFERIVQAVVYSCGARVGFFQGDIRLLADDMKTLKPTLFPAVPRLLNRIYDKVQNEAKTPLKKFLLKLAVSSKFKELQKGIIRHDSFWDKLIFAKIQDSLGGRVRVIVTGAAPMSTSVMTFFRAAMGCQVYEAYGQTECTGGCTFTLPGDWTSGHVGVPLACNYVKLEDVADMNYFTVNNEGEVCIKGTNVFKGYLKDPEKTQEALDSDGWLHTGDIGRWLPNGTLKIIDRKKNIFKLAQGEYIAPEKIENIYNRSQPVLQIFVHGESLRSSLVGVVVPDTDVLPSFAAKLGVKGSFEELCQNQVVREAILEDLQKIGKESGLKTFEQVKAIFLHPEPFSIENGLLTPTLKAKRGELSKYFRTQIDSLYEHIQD

Row | IC50 [nM] | SMILES
1 | < 100 | CC(Oc1ccc(C(=O)NS(=O)(=O)N2CCN(C)CC2)c(Cl)c1Cl)c1cccc(Oc2ccccc2)c1 (racemic) [rac-(R)-2,3-dichloro-N-((4-methylpiperazin-1-yl)sulfonyl)-4-(1-(3-phenoxyphenyl)ethoxy)benzamide]
2 | > 500 | CC(Oc1ccc(C(=O)NS(=O)(=O)CCN)c(Cl)c1Cl)c1cccc(Oc2ccccc2)c1 (racemic) [rac-(R)-N-((2-aminoethyl)sulfonyl)-2,3-dichloro-4-(1-(3-phenoxyphenyl)ethoxy)benzamide]
3 | 100 to 500 | CC(Oc1ccc(C(=O)NS(=O)(=O)CCN)cc1C(F)(F)F)c1cccc(Oc2ccccc2)c1 (racemic) [rac-(R)-N-((2-aminoethyl)sulfonyl)-4-(1-(3-phenoxyphenyl)ethoxy)-3-(trifluoromethyl)benzamide]
4 | < 100 | CC(Oc1ccc(C(=O)NS(=O)(=O)c2ccc(CN)cc2)c(Cl)c1Cl)c1cccc(Oc2ccccc2)c1 (racemic) [rac-(R)-N-((4-(aminomethyl)phenyl)sulfonyl)-2,3-dichloro-4-(1-(3-phenoxyphenyl)ethoxy)benzamide]
5 | < 100 | Cc1cc(C(=O)NS(=O)(=O)c2ccc(CN)cc2)ccc1OC(C)c1cccc(Oc2ccccc2)c1 (racemic) [rac-(R)-N-((4-(aminomethyl)phenyl)sulfonyl)-3-methyl-4-(1-(3-phenoxyphenyl)ethoxy)benzamide]
6 | < 100 | CC[C@@H](Oc1ccc(C(=O)NS(=O)(=O)c2ccc(O[C@@H]3CCCN(C)C3)cc2)c(F)c1F)c1ccc(Oc2ccccn2)cn1 [2,3-difluoro-N-((4-(((R)-1-methylpiperidin-3-yl)oxy)phenyl)sulfonyl)-4-((R)-1-(5-(pyridin-2-yloxy)pyridin-2-yl)propoxy)benzamide]
7 | < 100 | CC[C@@H](Oc1ccc(C(=O)NS(=O)(=O)c2ccc(O[C@H]3CCCN(C)C3)cc2)c(F)c1F)c1ccc(Oc2ccccn2)cn1 [2,3-difluoro-N-((4-(((S)-1-methylpiperidin-3-yl)oxy)phenyl)sulfonyl)-4-((R)-1-(5-(pyridin-2-yloxy)pyridin-2-yl)propoxy)benzamide]
8 | < 100 | CNCc1ccc(S(=O)(=O)NC(=O)c2ccc(OCc3cccc(Oc4ccccc4)c3)c(F)c2F)cc1 [2,3-difluoro-N-((4-((methylamino)methyl)phenyl)sulfonyl)-4-((3-phenoxybenzyl)oxy)benzamide]
9 | > 500 | CCOc1ccc(C(C)Oc2ccc(C(=O)NS(=O)(=O)N3CCN(C)CC3)c(F)c2F)nc1 (centres unmarked) [4-(1-(5-ethoxypyridin-2-yl)ethoxy)-2,3-difluoro-N-((4-methylpiperazin-1-yl)sulfonyl)benzamide]
10 | > 500 | CCOc1ccc(C(C)Oc2ccc(C(=O)NS(=O)(=O)C3CCNCC3)c(F)c2F)nc1 (centres unmarked) [4-(1-(5-ethoxypyridin-2-yl)ethoxy)-2,3-difluoro-N-(piperidin-4-ylsulfonyl)benzamide]
11 | 100 to 500 | CCOc1ccc(C(CC)Oc2ccc(C(=O)NS(=O)(=O)CCCN3CCOCC3)cc2C(F)(F)F)nc1 (centres unmarked) [4-(1-(5-ethoxypyridin-2-yl)propoxy)-N-((3-morpholinopropyl)sulfonyl)-3-(trifluoromethyl)benzamide]
12 | < 100 | CCOc1ccc(C(CC)Oc2ccc(C(=O)NS(=O)(=O)c3ccc(OCCNC)cc3)cc2C(F)(F)F)nc1 (centres unmarked) [4-(1-(5-ethoxypyridin-2-yl)propoxy)-N-((4-(2-(methylamino)ethoxy)phenyl)sulfonyl)-3-(trifluoromethyl)benzamide]
13 | 100 to 500 | CC[C@@H](Oc1ccc(C(=O)NS(=O)(=O)c2ccc(O[C@@H]3CCCN(C)C3)cc2)c(F)c1F)c1ccc(OCC2CC2)cn1 [4-((R)-1-(5-(cyclopropylmethoxy)pyridin-2-yl)propoxy)-2,3-difluoro-N-((4-(((R)-1-methylpiperidin-3-yl)oxy)phenyl)sulfonyl)benzamide]
14 | < 100 | CC[C@@H](Oc1ccc(C(=O)NS(=O)(=O)c2ccc(O[C@H]3CCCN(C)C3)cc2)c(F)c1F)c1ccc(OCC2CC2)cn1 [4-((R)-1-(5-(cyclopropylmethoxy)pyridin-2-yl)propoxy)-2,3-difluoro-N-((4-(((S)-1-methylpiperidin-3-yl)oxy)phenyl)sulfonyl)benzamide]
15 | > 500 | CC[C@@H](Oc1ccc(C(=O)NS(=O)(=O)c2ccc(OC3CCN(C)CC3)cc2)c(F)c1F)c1ccc(OCCOC)cn1 [(R)-2,3-difluoro-4-(1-(5-(2-methoxyethoxy)pyridin-2-yl)propoxy)-N-((4-((1-methylpiperidin-4-yl)oxy)phenyl)sulfonyl)benzamide]
16 | > 500 | CC[C@@H](Oc1ccc(C(=O)NS(=O)(=O)N2CCC(OC3CCN(C)CC3)CC2)c(F)c1F)c1ccc(OCCOC)cn1 [(R)-2,3-difluoro-4-(1-(5-(2-methoxyethoxy)pyridin-2-yl)propoxy)-N-((4-((1-methylpiperidin-4-yl)oxy)piperidin-1-yl)sulfonyl)benzamide]
17 | 100 to 500 | CC[C@@H](Oc1ccc(C(=O)NS(=O)(=O)N2CC(OC3CCN(C)CC3)C2)c(F)c1F)c1ccc(Oc2ccccn2)cn1 [(R)-2,3-difluoro-N-((3-((1-methylpiperidin-4-yl)oxy)azetidin-1-yl)sulfonyl)-4-(1-(5-(pyridin-2-yloxy)pyridin-2-yl)propoxy)benzamide]
18 | < 100 | CC[C@@H](Oc1ccc(C(=O)NS(=O)(=O)N2CCN(CCCF)CC2)c(F)c1F)c1ccc(Oc2ccccn2)cn1 [(R)-2,3-difluoro-N-((4-(3-fluoropropyl)piperazin-1-yl)sulfonyl)-4-(1-(5-(pyridin-2-yloxy)pyridin-2-yl)propoxy)benzamide]
19 | < 100 | CC[C@@H](Oc1ccc(C(=O)NS(=O)(=O)N2CCC(OC3CN(C)C3)CC2)c(F)c1F)c1ccc(Oc2ccccn2)cn1 [(R)-2,3-difluoro-N-((4-((1-methylazetidin-3-yl)oxy)piperidin-1-yl)sulfonyl)-4-(1-(5-(pyridin-2-yloxy)pyridin-2-yl)propoxy)benzamide]
20 | 100 to 500 | CC[C@@H](Oc1ccc(C(=O)NS(=O)(=O)N2CC3=C(CN(C)C3)C2)c(F)c1F)c1ccc(Oc2ccccn2)cn1 [(R)-2,3-difluoro-N-((5-methyl-3,4,5,6-tetrahydropyrrolo[3,4-c]pyrrol-2(1H)-yl)sulfonyl)-4-(1-(5-(pyridin-2-yloxy)pyridin-2-yl)propoxy)benzamide]
21 | 100 to 500 | CC[C@@H](Oc1ccc(C(=O)NS(=O)(=O)N2CC3(CN(C)C3)C2)c(F)c1F)c1ccc(Oc2ccccn2)cn1 [(R)-2,3-difluoro-N-((6-methyl-2,6-diazaspiro[3.3]heptan-2-yl)sulfonyl)-4-(1-(5-(pyridin-2-yloxy)pyridin-2-yl)propoxy)benzamide]
22 | 100 to 500 | CC[C@@H](Oc1ccc(C(=O)NS(=O)(=O)N2CC(OC3CCN(C)CC3)C2)c(F)c1F)c1ccc(OCC2CC2)cn1 [(R)-4-(1-(5-(cyclopropylmethoxy)pyridin-2-yl)propoxy)-2,3-difluoro-N-((3-((1-methylpiperidin-4-yl)oxy)azetidin-1-yl)sulfonyl)benzamide]
23 | < 100 | CC[C@@H](Oc1ccc(C(=O)NS(=O)(=O)c2ccc(OCCNC)cc2)c(F)c1F)c1ccc(OCC2CC2)cn1 [(R)-4-(1-(5-(cyclopropylmethoxy)pyridin-2-yl)propoxy)-2,3-difluoro-N-((4-(2-(methylamino)ethoxy)phenyl)sulfonyl)benzamide]
24 | 100 to 500 | CC[C@@H](Oc1ccc(C(=O)NS(=O)(=O)N2CCC(OCCN3CCCC3)CC2)c(F)c1F)c1ccc(OCC2CC2)cn1 [(R)-4-(1-(5-(cyclopropylmethoxy)pyridin-2-yl)propoxy)-2,3-difluoro-N-((4-(2-(pyrrolidin-1-yl)ethoxy)piperidin-1-yl)sulfonyl)benzamide]
25 | < 100 | CC[C@@H](Oc1ccc(C(=O)NS(=O)(=O)N2CCN(CCCF)CC2)c(F)c1F)c1ccc(OCC2CC2)cn1 [(R)-4-(1-(5-(cyclopropylmethoxy)pyridin-2-yl)propoxy)-2,3-difluoro-N-((4-(3-fluoropropyl)piperazin-1-yl)sulfonyl)benzamide]

Row | SMILES | IC50 [nM]
26 | CC[C@@H](Oc1ccc(C(=O)NS(=O)(=O)N2CCC(OC3CCN(C)CC3)CC2)c(F)c1F)c1cc(OC2CC(OC)C2)ccn1 (stereo partly drawn) [2,3-difluoro-4-((R)-1-(4-((1R,3R)-3-methoxycyclobutoxy)pyridin-2-yl)propoxy)-N-((4-((1-methylpiperidin-4-yl)oxy)piperidin-1-yl)sulfonyl)benzamide] | > 500
27 | CC[C@@H](Oc1ccc(C(=O)NS(=O)(=O)N2CCN(C)CC2)c(F)c1F)c1cc(OC2CC(OC)C2)ccn1 (stereo partly drawn) [2,3-difluoro-4-((R)-1-(4-((1R,3R)-3-methoxycyclobutoxy)pyridin-2-yl)propoxy)-N-((4-methylpiperazin-1-yl)sulfonyl)benzamide] | > 500
28 | CC[C@@H](Oc1ccc(C(=O)NS(=O)(=O)N2CC3CC(C2)N3C)c(F)c1F)c1ccc(Oc2ccccn2)cn1 [2,3-difluoro-N-((6-methyl-3,6-diazabicyclo[3.1.1]heptan-3-yl)sulfonyl)-4-((R)-1-(5-(pyridin-2-yloxy)pyridin-2-yl)propoxy)benzamide] | < 100
29 | CC[C@@H](Oc1ccc(C(=O)NS(=O)(=O)N2CC3CCC(C2)N3C)c(F)c1F)c1ccc(Oc2ccccn2)cn1 [2,3-difluoro-N-((8-methyl-3,8-diazabicyclo[3.2.1]octan-3-yl)sulfonyl)-4-((R)-1-(5-(pyridin-2-yloxy)pyridin-2-yl)propoxy)benzamide] | < 100
